Results as given in publication PMC6175296 (Clinical Pharmacology and Therapeutics, 2017).
Entries after “also recorded” stand apart in the source; their conditions may differ. Read-outs that look alike come from different tables or passages of the source.

Assays:
[1] = type: in vivo, humans
OATP1B1 = conditions: read-out: OATP1B1 Ki; “Clopidogrel 25” model; published value; cited from earlier work
[2] = cited from earlier work
CYP2C8 [3] = biological target: T1, CYP2C8 (Homo sapiens, UniProt P10632); test: In vivo CYP2C8 inhibition judged from montelukast pharmacokinetics; conditions: montelukast as CYP2C8 probe substrate
T1 sequence (P10632 1-490): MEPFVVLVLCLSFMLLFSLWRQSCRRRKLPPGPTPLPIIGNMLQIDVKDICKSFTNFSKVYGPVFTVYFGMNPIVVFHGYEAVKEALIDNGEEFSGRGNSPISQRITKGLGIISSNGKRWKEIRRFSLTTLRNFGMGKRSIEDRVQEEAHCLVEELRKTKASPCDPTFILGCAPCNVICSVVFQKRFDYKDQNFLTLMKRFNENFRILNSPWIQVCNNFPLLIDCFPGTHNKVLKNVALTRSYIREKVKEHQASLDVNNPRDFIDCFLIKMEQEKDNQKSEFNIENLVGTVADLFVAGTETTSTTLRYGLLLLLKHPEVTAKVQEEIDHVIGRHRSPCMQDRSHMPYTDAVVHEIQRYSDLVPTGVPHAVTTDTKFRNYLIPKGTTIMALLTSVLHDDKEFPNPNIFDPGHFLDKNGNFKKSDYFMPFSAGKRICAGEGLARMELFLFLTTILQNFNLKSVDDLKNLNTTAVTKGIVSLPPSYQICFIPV

CYP2C8 [4] = conditions: read-out: CYP2C8 Ki; microsomal protein concentration 0.25 mg/mL; cited from earlier work
[5] = cited from earlier work; remark: listed apart in the source
[6] = cited from earlier work; remark: listed apart in the source
[7] = for AUC(0-inf): AUC0–∞; for tmax: median (range)
[8] = after 300 mg clopidogrel oral, day 1, median (range)
[9] = both, human, plasma, po, 300 mg
[10] = after 60 mg prasugrel oral, day 1, median (range)

COC(=O)[C@H](c1ccccc1Cl)N1CC[C@@H](S)/C(=C\C(=O)O)C1 [Clopidogrel active metabolite]
AUC0-13h [1, 8]: 32.0 (17.0–101) ng·h/mL
Cmax [1, 8]: 23.4 (12.6–80.1) ng/mL
tmax [1, 8]: 0.92 (0.92–1.5) h
t½ [1, 8]: 3.4 (0.84–4.8) h

O=C(O)[C@H]1O[C@@H](OC(=O)[C@H](c2ccccc2Cl)N2CCc3sccc3C2)[C@H](O)[C@@H](O)[C@@H]1O [Clopidogrel acyl‐β‐D‐glucuronide]
AUC0-13h [1, 8]: 16,200 (7,030–34,200) ng·h/mL
Cmax [1, 8]: 3,290 (1,470–9,680) ng/mL
tmax [1, 8]: 1.5 (0.92–3.0) h
t½ [1, 8]: 4.6 (3.9–6.6) h
Ki (OATP1B1): 5.45 µM

O=C(O)[C@H](c1ccccc1Cl)N1CCc2sccc2C1 [Clopidogrel carboxylic acid]
AUC0-13h [1, 8]: 38,500 (22,000–53,400) ng·h/mL
Cmax [1, 8]: 11,500 (7,410–19,700) ng/mL
tmax [1, 8]: 0.92 (0.92–1.5) h
t½ [1, 8]: 7.3 (5.8–9.2) h

COC(=O)[C@H](c1ccccc1Cl)N1CCc2sccc2C1 [Clopidogrel]
AUC(0-t) [1, 9]: 0.0132 µg·h/mL
Cmax [1, 9]: 3.53 ng/mL
half-life [1, 9]: 4.8 h
tmax [1, 9]: 1.5 h
clinically relevant inhibition of CYP3A4 or OATP1B1 ([2]; pitavastatin and simvastatin as substrates): not a clinically relevant inhibitor of CYP3A4 or OATP1B1
CYP2C8 inhibition in humans (conclusion) (CYP2C8 [3]): at least a moderate inhibitor of CYP2C8; also recorded: weaker CYP2C8 inhibitor than gemfibrozil

CC(C)(O)c1ccccc1CC[C@@H](SCC1(CC(=O)O)CC1)c1cccc(/C=C/c2ccc3ccc(Cl)cc3n2)c1 [Montelukast]
AUC increase by clarithromycin [2]: 2.4 fold
CYP2C8 inhibition in humans [2]: not a significant inhibitor of CYP2C8
decrease in exposure by fluconazole [2]: 30–40%
oral bioavailability [5]: 60–70%
bound to plasma proteins [6]: about 99.8%
AUC(0-inf) ([7]; both, human, plasma, oral, 10 mg, placebo phase, geometric mean (geometric CV)): 3.02 µg·h/mL
tmax ([7]; both, human, plasma, oral, 10 mg, placebo phase): 3.5 h
AUC(0-inf) ([7]; both, human, plasma, oral, clopidogrel phase, geometric mean (geometric CV)): 5.99 µg·h/mL
AUC(0-inf) ([7]; both, human, plasma, oral, prasugrel phase, geometric mean (geometric CV)): 2.8 µg·h/mL
tmax ([7]; both, human, plasma, oral, clopidogrel phase): 4.5 h
tmax ([7]; both, human, plasma, oral, prasugrel phase): 3 h
half-life ([7]; both, human, plasma, oral, t½, clopidogrel phase, geometric mean (geometric CV)): 8.2 h
t½ ([7]; placebo phase, geometric mean (geometric CV)): 4.51 (18) h
prolongation in t½ ([7]; prasugrel phase vs placebo): 15%
t½ prolongation by prasugrel ([7]; prasugrel phase vs placebo): 1.15 fold
t½ ([7]; prasugrel phase, geometric mean (geometric CV)): 5.16 (20) h

CCc1ccc(CCOc2ccc(CC3SC(=O)NC3=O)cc2)nc1 (centres unmarked) [Pioglitazone]
AUC increase by gemfibrozil ([2]; previous studies): about 3 fold
AUC increase by clopidogrel ([2]; previously reported): 2.0–2.1 fold

O=C(O)/C=C1/CN(C(C(=O)C2CC2)c2ccccc2F)CCC1S (centres unmarked) [Prasugrel active metabolite (R‐138727)]
AUC0-13h [1, 10]: 495 (249–1090) ng·h/mL
Cmax [1, 10]: 428 (210–865) ng/mL
tmax [1, 10]: 0.92 (0.92–0.92) h
t½ [1, 10]: 3.9 (3.2–5.5) h

O=C1C=C2CN(C(C(=O)C3CC3)c3ccccc3F)CCC2S1 (centres unmarked) [Prasugrel inactive metabolite (R‐95913)]
AUC0-13h [1, 10]: 495 (247–1140) ng·h/mL
Cmax [1, 10]: 240 (105–692) ng/mL
tmax [1, 10]: 0.92 (0.92–1.5) h
t½ [1, 10]: 7.1 (6.0–9.2) h

CC(=O)Oc1cc2c(s1)CCN(C(C(=O)C1CC1)c1ccccc1F)C2 (centres unmarked) [Prasugrel]
CYP2C8 inhibition in humans (conclusion) (CYP2C8 [3]): not a clinically relevant CYP2C8 inhibitor; also recorded: not a significant inhibitor of CYP2C8
